Measurements taken from patent US20220313698A1, “MODULATORS OF CYSTIC FIBROSIS TRANSMEMBRANE CONDUCTANCE REGULATOR” (Vertex Pharmaceuticals Incorporated, priority 2019, published 2022).

Biological target: CFTR-mediated chloride transport (Homo sapiens, UniProt P13569)
Experiment: Corrector Assay A - membrane potential dye assay (enteroid cells)
Conditions: for Corrector Assay A % activity: % of chloride transport of triple combination control (1 μM (14S)-dispiro macrocycle + 3 μM tezacaftor + 300 nM ivacaftor); for EC50: read-out: Corrector Assay A EC50, human intestinal enteroid cells, 18-24 h incubation, acute 10 μM forskolin + 300 nM ivacaftor

| Structure (SMILES) | Corrector Assay A % activity | EC50 [nM] |
| --- | --- | --- |
| CC1(C)OCCc2cc3c(nc21)N1C[C@@H](CCC(c2ccccn2)Nc2cccc(n2)S(=O)(=O)NC3=O)CC1(C)C (single isomer, unassigned) [Compound 212] | +++ (+++ is >60%) | < 1000 |
| CC1(C)OCCc2cc3c(nc21)N1C[C@@H](CCC(c2ccccn2)Nc2cccc(n2)S(=O)(=O)NC3=O)CC1(C)C (single isomer, unassigned) [Compound 213] | ++ (++ is 30-60%) | 1000 to 3000 |
| CC(C)(C)c1ccc2c(n1)N1C[C@@H](CC[C@@H](c3ccncn3)Nc3cccc(n3)S(=O)(=O)NC2=O)CC1(C)C (single isomer, unassigned) [Compound 216] | + (+ is <30%) |  |
| CC(C)(C)c1ccc2c(n1)N1C[C@@H](CC[C@@H](c3ccncn3)Nc3cccc(n3)S(=O)(=O)NC2=O)CC1(C)C (single isomer, unassigned) [Compound 217] | ++ (++ is 30-60%) | < 1000 |
| CC(C)(C)c1ccc2c(n1)N1C[C@@H](CC[C@@H](C3CCN(c4ncccn4)CC3)Nc3cccc(n3)S(=O)(=O)NC2=O)CC1(C)C (single isomer, unassigned) [Compound 219] | ++ (++ is 30-60%) | < 1000 |
| COCCN1CCC2(CC1)CC(NC(=O)C1CC[C@@H]3CN(c4nc(C(C)(C)C)ccc4C(=O)NS(=O)(=O)c4cccc(n4)N1)C(C)(C)C3)C2 (single isomer, unassigned) [Compound 220] | +++ (+++ is >60%) | 1000 to 3000 |
| CC(C)(C)c1ccc2c(n1)N1C[C@@H](CCC(C(=O)NC3CC4(CCNCC4)C3)Nc3cccc(n3)S(=O)(=O)NC2=O)CC1(C)C (single isomer, unassigned) [Compound 222] | ++ (++ is 30-60%) | > 3000 |
| COC(=O)C1CC[C@@H]2CN(c3nc(C(C)(C)C)ccc3C(=O)NS(=O)(=O)c3cccc(n3)N1)C(C)(C)C2 (single isomer, unassigned) [Compound 224] | +++ (+++ is >60%) | < 1000 |
| COC(=O)C1CC[C@@H]2CN(c3nc(C(C)(C)C)ccc3C(=O)NS(=O)(=O)c3cccc(n3)N1)C(C)(C)C2 (single isomer, unassigned) [Compound 225] | ++ (++ is 30-60%) | < 1000 |
| CC(C)(C)OC(=O)N1CCC2(CC1)CC(NC(=O)C1CC[C@@H]3CN(c4nc(C(C)(C)C)ccc4C(=O)NS(=O)(=O)c4cccc(n4)N1)C(C)(C)C3)C2 (single isomer, unassigned) [Compound 226] | +++ (+++ is >60%) | < 1000 |
| CC(=O)N1CCC([C@@H]2CC[C@@H]3CN(c4nc(C(C)(C)C)ccc4C(=O)NS(=O)(=O)c4cccc(n4)N2)C(C)(C)C3)CC1 (single isomer, unassigned) [Compound 229] | ++ (++ is 30-60%) | < 1000 |
| CC(C)(C)c1ccc2c(n1)N1C[C@@H](CCC(C(=O)O)Nc3cccc(n3)S(=O)(=O)NC2=O)CC1(C)C (single isomer, unassigned) [Compound 230] | +++ (+++ is >60%) | > 3000 |
| CC(C)(C)c1ccc2c(n1)N1C[C@@H](CCC(C(=O)O)Nc3cccc(n3)S(=O)(=O)NC2=O)CC1(C)C (single isomer, unassigned) [Compound 231] | + (+ is <30%) | > 3000 |
| CC(C)(C)c1ccc2c(n1)N1C[C@@H](CCC(c3ccncc3)Nc3cccc(n3)S(=O)(=O)NC2=O)CC1(C)C (single isomer, unassigned) [Compound 232] | +++ (+++ is >60%) | < 1000 |
| CC(C)(C)c1ccc2c(n1)N1C[C@@H](CCC(c3ccncc3)Nc3cccc(n3)S(=O)(=O)NC2=O)CC1(C)C (single isomer, unassigned) [Compound 233] | ++ (++ is 30-60%) | < 1000 |
| CC(C)(C)c1ccc2c(n1)N1C[C@@H](CC[C@@H](C3CCCCC3)Nc3cccc(n3)S(=O)(=O)NC2=O)CC1(C)C (single isomer, unassigned) [Compound 234] | ++ (++ is 30-60%) | < 1000 |

| Structure (SMILES) | Corrector Assay A % activity | EC50 [nM] |
| --- | --- | --- |
| CC(C)(C)c1ccc2c(n1)N1C[C@@H](CC[C@@H](C3CCCCC3)Nc3cccc(n3)S(=O)(=O)NC2=O)CC1(C)C (single isomer, unassigned) [Compound 235] | ++ (++ is 30-60%) | < 1000 |
| CN(C)CC(=O)N1CCC([C@@H]2CC[C@@H]3CN(c4nc(C(C)(C)C)ccc4C(=O)NS(=O)(=O)c4cccc(n4)N2)C(C)(C)C3)CC1 (single isomer, unassigned) [Compound 237] | ++ (++ is 30-60%) | 1000 to 3000 |
| CC(C)(C)c1ccc2c(n1)N1C[C@@H](CC[C@@H](C3CCN(CCC(F)(F)F)CC3)Nc3cccc(n3)S(=O)(=O)NC2=O)CC1(C)C (single isomer, unassigned) [Compound 239] | + (+ is <30%) | > 3000 |
| CN1CCC(C2CC[C@@H]3CN(c4nc(C(C)(C)C)ccc4C(=O)NS(=O)(=O)c4cccc(n4)N2)C(C)(C)C3)CC1 (single isomer, unassigned) [Compound 240] | +++ (+++ is >60%) | 1000 to 3000 |
| CN1CCC(C2CC[C@@H]3CN(c4nc(C(C)(C)C)ccc4C(=O)NS(=O)(=O)c4cccc(n4)N2)C(C)(C)C3)CC1 (single isomer, unassigned) [Compound 241] | ++ (++ is 30-60%) | < 1000 |
| Cc1cccc(C)c1[C@H]1CC[C@@H]2CN(c3nc(C(C)(C)C)ccc3C(=O)NS(=O)(=O)c3cccc(n3)N1)C(C)(C)C2 (single isomer, unassigned) [Compound 242] | + (+ is <30%) |  |
| Cc1cccc(C)c1[C@@H]1CC[C@@H]2CN(c3nc(C(C)(C)C)ccc3C(=O)NS(=O)(=O)c3cccc(n3)N1)C(C)(C)C2 (single isomer, unassigned) [Compound 243] | +++ (+++ is >60%) | < 1000 |
| CC(C)(C)c1ccc2c(n1)N1C[C@@H](CCC(C(C)(C)C)Nc3cccc(n3)S(=O)(=O)NC2=O)CC1(C)C (single isomer, unassigned) [Compound 244] | +++ (+++ is >60%) | < 1000 |
| CC(C)(C)c1ccc2c(n1)N1C[C@@H](CCC(C(C)(C)C)Nc3cccc(n3)S(=O)(=O)NC2=O)CC1(C)C (single isomer, unassigned) [Compound 245] | ++ (++ is 30-60%) | < 1000 |
| CC(C)(C)c1ccc2c(n1)N1C[C@@H](CCC(C3CCNCC3)Nc3cccc(n3)S(=O)(=O)NC2=O)CC1(C)C (single isomer, unassigned) [Compound 248] | ++ (++ is 30-60%) | > 3000 |
| CC(C)(C)c1ccc2c(n1)N1C[C@@H](CCC(C3CCNCC3)Nc3cccc(n3)S(=O)(=O)NC2=O)CC1(C)C (single isomer, unassigned) [Compound 249] | ++ (++ is 30-60%) | > 3000 |
| CC(C)(C)c1ccc2c(n1)N1CC(CCCNc3cc(O)cc(n3)S(=O)(=O)NC2=O)CC1(C)C (single isomer, unassigned) [Compound 250, 8-tert-butyl-21-hydroxy-12,12-dimethyl-2λ^6-thia-3,9,11,18,23-pentaazatetracyclo[17.3.1.111,14.05,10]tetracosa-1(23),5,7,9,19,21-hexaene-2,2,4-trione] | ++ (++ is 30-60%) | < 1000 |
| CC(C)(C)c1ccc2c(n1)N1CC(CCCNc3cc(O)cc(n3)S(=O)(=O)NC2=O)CC1(C)C (single isomer, unassigned) [Compound 251, 8-tert-butyl-21-hydroxy-12,12-dimethyl-2λ^6-thia-3,9,11,18,23-pentaazatetracyclo[17.3.1.111,14.05,10]tetracosa-1(23),5,7,9,19,21-hexaene-2,2,4-trione] | + (+ is <30%) |  |
| CC(C)(C)c1ccc2c(n1)N1CC(CCCNc3cncc(n3)S(=O)(=O)NC2=O)CC1(C)C (single isomer, unassigned) [Compound 252, 8-tert-butyl-12,12-dimethyl-2λ^6-thia-3,9,11,18,21,23-hexaazatetracyclo[17.3.1.111,14.05,10]tetracosa-1(22),5,7,9,19(23),20-hexaene-2,2,4-trione] | ++ (++ is 30-60%) | < 1000 |
| CC(C)(C)c1ccc2c(n1)N1CC(CCCNc3cncc(n3)S(=O)(=O)NC2=O)CC1(C)C (single isomer, unassigned) [Compound 253, 8-tert-Butyl-12,12-dimethyl-2λ^6-thia-3,9,11,18,21,23-hexaazatetracyclo[17.3.1.111,14.05,10]tetracosa-1(22),5,7,9,19(23),20-hexaene-2,2,4-trione] | + (+ is <30%) | > 3000 |
| CC(C)(C)c1ccc2c(n1)N1C[C@@H](CCC(C3CCN(C(=O)OCc4ccccc4)CC3)Nc3cccc(n3)S(=O)(=O)NC2=O)CC1(C)C (single isomer, unassigned) [Compound 254] | + (+ is <30%) | < 1000 |
